Data reported in PMC6158191, “Crystal structure of the red light-activated channelrhodopsin Chrimson” (Nature Communications, 2018).
Values belong to the molecule of their own block, whether it stands above or below them.

What was measured:
[1] = molecular target: C1Chrimson (Chrimson variant with the extracellular N-terminal sequence replaced by that of CrChR1) (Chlamydomonas reinhardtii | Chlamydomonas noctigama); assay: crystal structure; lipidic cubic phase (monoolein) crystals, 28-33% PEG500DME, 100 mM Na citrate pH 5.0, 100 mM Na malonate pH 7.0, 10-40 mM sarcosine; two protomers in the asymmetric unit; 2.6 Å
CsChrimson = molecular target: T1, CsChrimson (Chlamydomonas noctigama, UniProt Z9S8G4QJ52, , form not given); assay: whole-cell patch clamp, HEK293, photocurrent on cation exchange; format: cell-based; conditions: permeant ion; 110 mM guanidinium chloride outside replacing NaCl; 110 mM NaCl inside, pHi 7.2
T1 construct: extracellular N-terminus of Chrimson replaced by that of C. subdivisa channelrhodopsin; in pmCerulean-C1 vector; HEK293 cells; with Channelrhodopsin (Chloromonas subdivisa; N-terminal extracellular part of the same polypeptide)
T1 sequence (Z9S8G4QJ52 77-347 R159H): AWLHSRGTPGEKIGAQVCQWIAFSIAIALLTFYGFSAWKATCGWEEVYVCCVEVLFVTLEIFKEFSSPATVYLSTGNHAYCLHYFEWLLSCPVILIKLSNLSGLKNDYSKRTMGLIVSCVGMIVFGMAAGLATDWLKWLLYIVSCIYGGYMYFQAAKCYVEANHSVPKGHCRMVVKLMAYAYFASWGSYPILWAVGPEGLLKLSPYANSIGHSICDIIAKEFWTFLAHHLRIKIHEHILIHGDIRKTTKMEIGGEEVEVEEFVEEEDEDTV

[2] = molecular target: T2, C1Chrimson (called Chrimson in the structure and spectroscopy sections) (Chlamydomonas noctigama, UniProt Z9S8G4QJ52); assay: X-ray crystallography, […] Å; format: binding; conditions: covalent; Schiff base to conserved lysine; crystals at low pH, dark
T2 construct: residues 1-79 of CsChrimson replaced by CrChR1 1-76; Sf9; C-terminal TEV-EGFP-FLAG cleaved for crystals; C-terminal FLAG for spectroscopy; dimer
T2 sequence (Z9S8G4QJ52 1-347): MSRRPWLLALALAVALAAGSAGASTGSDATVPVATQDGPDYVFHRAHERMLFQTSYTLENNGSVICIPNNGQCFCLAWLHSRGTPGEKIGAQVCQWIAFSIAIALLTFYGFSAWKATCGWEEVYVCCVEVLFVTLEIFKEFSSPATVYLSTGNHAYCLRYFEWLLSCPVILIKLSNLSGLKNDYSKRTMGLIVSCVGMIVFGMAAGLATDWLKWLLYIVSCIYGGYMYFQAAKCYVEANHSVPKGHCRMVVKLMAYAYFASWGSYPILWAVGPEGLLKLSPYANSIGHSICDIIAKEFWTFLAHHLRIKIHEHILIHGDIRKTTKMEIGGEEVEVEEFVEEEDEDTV

stoichiometry N [1]: 2
Molecule: C1Chrimson (Chrimson variant with the extracellular N-terminal sequence replaced by that of CrChR1)

Molecule: N=C(N)N [guanidinium]
whole-cell patch clamp, HEK293, photocurrent on cation exchange (CsChrimson): ion-conducting pore of the R162H mutant is permeable to the large cation guanidinium

Molecule: CC1=C(/C=C/C(C)=C/C=C/C(C)=C/C=O)C(C)(C)CCC1 [all-trans retinal]
X-ray crystallography, 2.6 Å [2]: including the covalently attached all-trans retinal
